Drawing on patent US8580815B2, “Derivatives of azaindoles as inhibitors of protein kinases ABL and SRC” (Oribase Pharma, priority 2009, dated 2013), this text covers inhibition and IC50 for five compounds.

For one assay, the target named is Abl kinase (h) (Homo sapiens (Human), UniProt P00519). Kind of assay: Cerep kinase profiling, HTRF assay, Abl kinase. It is filed as biochemical. How it is done: (§1) The inhibitory activity of the compounds of the chemical series on different protein kinases was evaluated by Cerep (Cerep Kinase Profiling Service; www.cerep.com). The kinases used in the tests in vitro are human recombinant proteins expressed in human cells, insect cells or in bacteria. […] The activity of the kinase was then detected by an HTRF assay. The HTRF assay (CisBio International) is based on fluorescence transfer, using Europium (Eu3+) cryptate and XL665 respectively as donor and acceptor. When the biotinylated or tagged substrate is phosphorylated by the kinase, it reacts with a cryptate-labelled phosphospecific antibody. Addition of Streptavidin-XL665, SA-XL665, (or anti-tag antibody XL665) leads to juxtaposition of the cryptate and of the fluorophore XL665, which is reflected in fluorescence resonance energy transfer (FRET). The intensity of FRET depends on the quantity of cryptate-labelled antibody bound to the substrate, which is proportional to the quantity of phosphorylated substrate (Mathis, G. Probing molecular interactions with homogeneous techniques based on rare earth cryptates and fluorescence energy transfer.

In the next assay the target is Src kinase (h) (Homo sapiens (Human), UniProt P12931). The experiment in a line: Cerep kinase profiling, HTRF assay, Src kinase. It is filed as biochemical. How it is done: as §1
For orientation: TR-FRET usually uses a lanthanide donor and a delayed reading to cut background.

For a further assay, the target named is Abl T315I (Homo sapiens (Human), UniProt P00519, T315I). The experiment in a line: Reaction Biology Corp. kinase assay, mutated Abl T315I. It is filed as biochemical. To be noted: Reaction Biology Corp. How it is done:
(§2) 4 compounds were tested for their capacity to inhibit various mutated kinases AbI (American company, Reaction Biology Corp.).

For the next assay, the target named is Abl WT (Homo sapiens (Human), UniProt P00519). The experiment in a line: Reaction Biology Corp. kinase assay, Abl WT. The following applies: compounds tested by Reaction Biology Corp. Type of assay: biochemical. How it is done:
as §2

Assay [1] has as its system K562 cells expressing kinase Bcr-AbI. The experiment in a line: Inhibition of cellular proliferation (MTT), K562 cells. It is filed as cell-based, human. The following applies: Homo sapiens. How it is done: Cellular tests were carried out at the Montpellier Cancer Research Centre. The inhibition of proliferation by our compounds was analysed on 2 cell lines (U937 and K562) by calculating the IC50, testing 6 concentrations in triplicate for each of the compounds and for each line.
Cells in exponential phase were seeded in 96-well plates at a concentration of 10^4 cells/100 μL/well. The final concentrations of compound in the well in contact with the cells were 0.1; 0.3; 0.9; 3.3; 10; 30; 90 μM. […]

In a further assay the target is Src kinase (Homo sapiens (Human), UniProt P12931). The experiment in a line: Reaction Biology Corp. kinase assay, Src. The following applies: compounds tested by Reaction Biology Corp.
Where [2] appears, read: 10 μM, compounds tested by Cerep, read-out: % inhibition of kinase activity, Abl WT (category).
[3] abbreviates: Table 6, compound incubated at 10 μM, read-out: Percentage inhibition of kinase Abl.
Where [4] appears, read: Table 8, compound incubated at 10 μM, read-out: Percentage inhibition of kinase Abl.
[5] abbreviates: 10 μM, compounds tested by Cerep, read-out: % inhibition of kinase activity, Src (category).
[6] abbreviates: compound incubated at 10 μM, read-out: Percentage inhibition of kinase c-Src.

Molecules are shown by their SMILES. Read-outs that look alike come from different tables or passages of the source. Where only a bound is given, the exact number is not on record here.

Sequence of Src kinase (h) (P12931 whole entry, looked up): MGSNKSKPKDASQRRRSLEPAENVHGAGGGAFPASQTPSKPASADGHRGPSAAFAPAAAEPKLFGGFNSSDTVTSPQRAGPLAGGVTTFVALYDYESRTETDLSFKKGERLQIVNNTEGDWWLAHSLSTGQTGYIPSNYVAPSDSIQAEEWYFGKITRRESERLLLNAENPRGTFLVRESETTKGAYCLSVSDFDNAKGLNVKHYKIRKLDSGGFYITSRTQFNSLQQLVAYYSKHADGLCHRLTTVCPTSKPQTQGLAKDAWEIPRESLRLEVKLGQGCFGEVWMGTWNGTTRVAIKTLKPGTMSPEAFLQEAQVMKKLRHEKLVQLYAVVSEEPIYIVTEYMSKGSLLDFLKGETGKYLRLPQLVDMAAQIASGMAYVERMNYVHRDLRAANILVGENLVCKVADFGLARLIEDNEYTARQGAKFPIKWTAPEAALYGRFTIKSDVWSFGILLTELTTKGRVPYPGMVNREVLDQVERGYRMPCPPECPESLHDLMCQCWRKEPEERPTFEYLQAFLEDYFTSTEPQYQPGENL
Sequence of Src kinase (P12931 whole entry, looked up): as above

As to `COCc1cc2cc(NC(=O)c3ccccc3Br)cnc2[nH]1` [ND0021, 2-bromo-N-(2-(methoxymethyl)-1H-pyrrolo[2,3-b]pyridin-5-yl)benzamide], the inhibition (as a rule, how much of the control response was suppressed) at 10 µM was above 50% at Abl kinase (h) (setting [2]); 94% at Abl kinase (h) (setting [3]); 94% at Abl kinase (h) (setting [4]); above 50% at Src kinase (h) (setting [5]); 59% at Src kinase (h) (setting [6]).

With `O=C(Nc1cnc2[nH]c(Cc3ccc[nH]3)cc2c1)c1ccccc1Br` [ND0037], the inhibition at 10 µM on Abl kinase (h) (setting [2]) is above 50%; on Abl kinase (h) (setting [3]), 97%; on Abl kinase (h) (setting [4]), 97%; at Src kinase (h) (setting [5]), above 50%; at Src kinase (h) (setting [6]), 72%.

Consider `O=C(Nc1cnc2[nH]c(CNc3ccc(O)cc3)cc2c1)c1ccccc1Br` [ND0038], for which the inhibition at 10 µM on Abl kinase (h) (setting [2]) was above 50%; at Abl kinase (h) (setting [3]), 94%; on Abl kinase (h) (setting [4]), 94%; on Src kinase (h) (setting [5]) it was above 50%; on Src kinase (h) (setting [6]), 71%. Moreover, the IC50 – broadly, the point on the concentration scale where inhibition reaches its midpoint – on Abl kinase (h) (Table 9, Cerep, 5 concentrations 10^−10 M to 10^−4 M, read-out: IC50 in M Abl) was 2600 nM; at Abl kinase (h) (compounds tested by Cerep, read-out: IC50 on kinase Abl WT (category)) it was 100 to 10000 nM.

In the case of `COC(=O)c1cc2cc(NC(=O)c3c(F)cccc3OC)cnc2[nH]1` [ND0047, Methyl 5-(2-fluoro-6-methoxybenzamido)-1H-pyrrolo[2,3-b]pyridine-2-carboxylate], the inhibition at 10 µM is above 50% on Abl kinase (h) (setting [2]); 94% at Abl kinase (h) (setting [3]); 94% at Abl kinase (h) (setting [4]); above 50% on Src kinase (h) (setting [5]); 74% at Src kinase (h) (setting [6]).

In the case of `COC(=O)c1cc2cc(NC(=O)c3cc(NC(=O)c4ccc(CN5CCC(N(C)C)C5)c(C(F)(F)F)c4)ccc3C)cnc2[nH]1` (stereo not shown) [ND0119, methyl 5-(5-(4-((3-(dimethylamino)pyrrolidin-1-yl)methyl)-3-(trifluoro-methyl)benzamido)-2-methylbenzamido)-1H-pyrrolo[2,3-b]pyridine-2-carboxylate], the inhibition at 10 µM at Abl T315I (10 μM, read-out: % inhibition of kinase activity, Abl T315I (category)) was above 50%; on Abl WT (10 μM, read-out: % inhibition of kinase activity, Abl WT (category)), above 50%; at Src kinase (read-out: % inhibition of kinase activity, Src (category), 10 μM), above 50%. Also, the IC50 was 100 to 10000 nM on Abl T315I (ATP at 10 μM, read-out: IC50 on kinase Abl T315I (category)); below 1 nM at Abl WT (ATP at 10 μM, read-out: IC50 on kinase Abl WT (category)); 10 nM in assay [1] (K562, 24 h, 24 h incubation, read-out: IC50 at 24 h on K562 (category)); below 10 nM in assay [1] (K562, 72 h, read-out: IC50 at 72 h on K562 (category), 72 h incubation); 10 nM in assay [1] (K562, incubation time not stated (24 h and/or 72 h), read-out: IC50 for the K562 Bcr-AbI kinase (category)); 1 to 100 nM against Src kinase (IC50 on kinase Src (category), ATP at 10 μM).
